Measured values as given in patent publication US20230000842A1, “METHODS OF TREATING CARTILAGE DISORDERS THROUGH INHIBITION OF CLK AND DYRK” (SAMUMED, LLC, priority 2019, published 2023).

Key:
CLK2 kinase = CLK2 kinase (Homo sapiens, UniProt P49760); assay: CLK2 kinase activity assay (Z-lyte FRET); format: biochemical; settings: Z-lyte Ser/Thr 6 peptide, 60 μM ATP, 1 h at room temperature;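 note: FRET read-out as coumarin to fluorescein emission ratio, unphosphorylated peptide as 0% and phosphorylated peptide as 100% controls, duplicate reactions, non-linear regression fit of dose-response curves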
Chain of CLK2 kinase (P49760 whole entry): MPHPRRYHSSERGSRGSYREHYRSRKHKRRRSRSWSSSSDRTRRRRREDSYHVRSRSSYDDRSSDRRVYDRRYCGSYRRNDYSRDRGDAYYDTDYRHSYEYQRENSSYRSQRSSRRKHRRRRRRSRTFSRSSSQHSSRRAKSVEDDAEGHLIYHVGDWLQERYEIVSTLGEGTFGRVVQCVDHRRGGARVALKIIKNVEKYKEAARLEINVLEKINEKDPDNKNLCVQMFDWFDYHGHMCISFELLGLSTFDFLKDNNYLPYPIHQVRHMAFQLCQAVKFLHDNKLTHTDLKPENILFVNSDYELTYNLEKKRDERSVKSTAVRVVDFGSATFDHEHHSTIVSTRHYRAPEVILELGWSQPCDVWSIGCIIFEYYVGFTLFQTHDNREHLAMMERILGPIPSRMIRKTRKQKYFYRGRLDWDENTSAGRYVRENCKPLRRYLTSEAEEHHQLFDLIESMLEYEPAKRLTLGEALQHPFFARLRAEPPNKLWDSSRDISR
Description: This is a non-radioactive assay using fluorescence resonance energy transfer (FRET) between coumarin and fluorescein to detect kinase activity which is represented as a ratio of coumarin emission/fluorescein emission.
The mixture was allowed to incubate with the representative compounds for one hour at room temperature. All reactions were performed in duplicate. Unphosphorylated (“0% Control”) and phosphorylated (“100% control”) forms of Ser/Thr 6 served as control reactions. Additionally, an 11-point dose-response curve of Staurosporine (1 μM top) was run to serve as a positive compound control.
After incubation, Development Reagent A was diluted in Development Buffer then added to the reaction and allowed to further incubate for one hour at room temperature.
Dose-response curves were generated and inhibitory concentration (IC50) values were calculated using non-linear regression curve fit in the Dotmatics' Studies Software (Bishops Stortford, UK).

CLK3 kinase = CLK3 kinase (Homo sapiens, UniProt P49761); assay: CLK3 kinase activity assay (Z-lyte FRET); format: biochemical; settings: Z-lyte Ser/Thr 18 peptide, 156 μM ATP, 1 h at room temperature;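 note: kinase activity read as coumarin/fluorescein emission ratio by FRET, unphosphorylated peptide as 0% and phosphorylated peptide as 100% control, values from non-linear regression of dose-response curves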
Chain of CLK3 kinase (P49761 whole entry): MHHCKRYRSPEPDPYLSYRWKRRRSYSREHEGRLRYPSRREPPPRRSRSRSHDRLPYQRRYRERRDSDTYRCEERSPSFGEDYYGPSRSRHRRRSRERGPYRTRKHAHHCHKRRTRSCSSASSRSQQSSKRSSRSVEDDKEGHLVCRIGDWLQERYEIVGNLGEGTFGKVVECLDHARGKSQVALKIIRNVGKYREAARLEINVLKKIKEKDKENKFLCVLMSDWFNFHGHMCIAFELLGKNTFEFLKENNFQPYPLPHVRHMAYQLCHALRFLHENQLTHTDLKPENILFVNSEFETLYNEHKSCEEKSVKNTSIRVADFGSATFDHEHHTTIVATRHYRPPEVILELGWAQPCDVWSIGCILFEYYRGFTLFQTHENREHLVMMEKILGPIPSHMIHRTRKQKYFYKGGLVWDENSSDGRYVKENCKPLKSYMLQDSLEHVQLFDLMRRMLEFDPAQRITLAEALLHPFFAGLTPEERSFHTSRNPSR

[1] = test system: primary human mesenchymal stem cells (hMSCs); assay: Chondrogenesis screening using primary human mesenchymal stem cells; format: cell-based; settings: Homo sapiens, Mesenchymal stem cells, hMSC chondrogenesis; for EC50: concentration required to induce 50% levels of chondrogenesis with TGF-β3 as positive control, read-out: Conc (nM) of 50% TGF-β3 activity; for Emax: maximum activity relative to TGF-β3 (10 ng/mL) positive control, read-out: Max. Activity as % TGF-β3 activity
Source text: Representative compounds were screened using primary human mesenchymal stem cells (hMSCs) to determine their ability to induce chondrogenesis (process by which cartilage is developed).
Human Mesenchymal Stem Cell Culture: Primary human mesenchymal stem cells (hMSCs) were purchased from Lonza (Walkersville, Md.) and expanded in Mesenchymal Stem Cell Growth Media (Lonza). Cells between passage 3 and 6 were used for the experiments.
Area of nodules in each well was normalized to the average of 3 DMSO treated wells on the same plate using Excel (Microsoft Inc.). The normalized averages (fold change over DMSO) of 2 or 3 replicate wells for each compound concentration were calculated. Due to solubility limitations of some of the compounds, curve fitting was incomplete leading to inaccurate EC50 determinations.
Using TGF-β3 as a positive control, the concentration of representative compounds required to induce 50% levels of chondrogenesis is reported. In addition, the maximum activity of each compound and the respective dose that each compound reached maximum chondrogenesis activity is reported.

[2] = test system: Wnt pathway activity (SW480 colon carcinoma cells stably expressing the Sp5-Luc reporter); assay: Wnt pathway activity screening assay (Sp5-Luc reporter gene assay); settings: Homo sapiens, SW480, Table 4; SW480 cells stably expressing Sp5-Luc reporter, 10-point dose-response from 10 μM, 36 to 48 hours
Description: The screening assay for Wnt pathway activity is described as follows.
SW480 colon carcinoma cells were transduced with a lentiviral vector expressing luciferase with a human Sp5 promoter consisting of a sequence of eight TCF/LEF binding sites. […] These stably transduced SW480 cells were expanded in cell culture and used for all further screening activities. Each compound was dissolved in DMSO as a 10 mM stock and used to prepare compound source plates. Serial dilution (1:3, 10-point dose-response curves starting from 10 μM) and compound transfer was performed using the ECHO 550 (Labcyte, Sunnyvale, Calif.) into 384-well white solid bottom assay plates (Greiner Bio-One) with appropriate DMSO backfill for a final DMSO concentration of 0.1%. […] Following incubation, 15 μl of BriteLite Plus luminescence reagent (Perkin Elmer) was added to each well of the 384-well assay plates. The plates were placed on an orbital shaker for 2 min and then luminescence was quantified using the Envision (Perkin Elmer) plate reader.

Row | EC50 (CLK2 kinase) [nM] | EC50 (CLK3 kinase) [nM] | EC50 [1] [nM] | EC50 [2] [nM] | SMILES | Emax [1] [%]
1 | 20 | 4930 | 10 | 22.3 | COc1cncc(C(=O)Nc2c[nH]nc2C(=O)Nc2ccc(OCCN3CCCC3)nc2)c1 [compound 5] | 106
2 | 14 | 2360 | – | 681 | COc1cncc(C(=O)Nc2c[nH]nc2C(=O)Nc2ccc(N3CCNCC3)nc2)c1 [compound 7] | 90.7
3 | 2 | 361 | 30 | 253 | Cc1n[nH]c2ccc(-c3cncc(OC[C@H](N)Cc4ccccc4)n3)cc12 [compound 52] | 52.1
4 | 2 | 109 | 30 | 50 | COc1ccc(NC(=O)c2n[nH]c3ccc(-c4cncc(CN5CCCC5)c4)cc23)cn1 [compound 71] | 63.1
5 | 2 | 22 | 100 | 5 | COc1ccc(NC(=O)c2n[nH]c3ccc(-c4cncc(CN5CCC(F)(F)C5)c4)cc23)cn1 [compound 72] | 72.2
6 | 1 | 11 | 30 | 4 | CN1CCN(c2ccc(NC(=O)c3n[nH]c4ccc(-c5cncc(CN6CCC(F)(F)C6)c5)cc34)cn2)CC1 [compound 73] | 80.9
7 | 1 | 44 | 30 | 57 | Cc1ccc(NC(=O)c2n[nH]c3ccc(-c4cncc(CN5CCCCC5)c4)cc23)cn1 [compound 78] | 102
8 | 1 | 352 | 300 | 59 | Cc1cncc(NC(=O)c2n[nH]c3ccc(-c4cncc(CN5CCCCC5)c4)cc23)c1 [compound 79] | 68.3
9 | 3 | 93 | 100 | 36.4 | O=C(Nc1ccnc(C(F)(F)F)c1)c1n[nH]c2ccc(-c3cncc(CN4CCCCC4)c3)cc12 [compound 80] | 69
10 | 1 | 32 | 300 | 15 | COc1ccc(NC(=O)c2n[nH]c3ccc(-c4cncc(CN5CCCCC5)c4)cc23)cn1 [compound 81] | 138
11 | 13 | 616 | 10 | 41 | CC(C)Oc1ccc(NC(=O)c2n[nH]c3ccc(-c4cncc(CN5CCCCC5)c4)cc23)cn1 [compound 82] | 51.9
12 | 7 | 1800 | – | 25 | CC(C)CC(=O)Nc1ccncc1NC(=O)c1n[nH]c2ccc(-c3cncc(CN4CCCCC4)c3)cc12 [compound 85] | 45.4
13 | 3 | 1270 | 30 | 120 | O=C(Nc1cnccc1NC(=O)C1CC1)c1n[nH]c2ccc(-c3cncc(CN4CCCCC4)c3)cc12 [compound 86] | 53.7
14 | 1 | 89 | 2700 | 2.8 | C[C@@H]1CN(c2ccc(NC(=O)c3n[nH]c4ccc(-c5cncc(CN6CCCCC6)c5)cc34)cn2)C[C@H](C)O1 [compound 92] | 129
15 | 1 | 11 | – | 40 | O=C(Nc1ccnnc1)c1n[nH]c2ccc(-c3cncc(CN4CCCCC4)c3)cc12 [compound 94] | –
16 | 1 | 46 | – | 289 | O=C(Nc1cnccn1)c1n[nH]c2ccc(-c3cncc(CN4CCCCC4)c3)cc12 [compound 95] | –
17 | 1 | 60 | – | 125 | O=C(Nc1ccc2c(c1)OCCO2)c1n[nH]c2ccc(-c3cncc(CN4CCCCC4)c3)cc12 [compound 97] | –
18 | 1 | 86 | 30 | 7 | CC1CCN(Cc2cncc(-c3ccc4[nH]nc(C(=O)Nc5cccnc5)c4c3)c2)CC1 [compound 98] | 94.4
19 | 1 | 99 | – | 335 | Cc1ncc(NC(=O)c2n[nH]c3ccc(-c4cnc(C)n4C)cc23)s1 [compound 115] | –

Row | EC50 (CLK2 kinase) [nM] | EC50 (CLK3 kinase) [nM] | EC50 [1] [nM] | EC50 [2] [nM] | SMILES | Emax [1] [%]
20 | 5 | 48 | 100 | 6 | O=C(Nc1nc2c(-c3cccc(F)c3)cncc2[nH]1)c1n[nH]c2ccc(-c3cccnc3)cc12 [compound 119] | 157
21 | 23 | 61 | 30 | 4.6 | CCC(=O)Nc1cncc(-c2ccc3[nH]nc(-c4nc5c(-c6cccc(F)c6)cncc5[nH]4)c3c2)c1 [compound 120] | 139
22 | 3 | 30 | – | > 10000 | CCC(=O)Nc1cncc(-c2ccc3[nH]nc(-c4nc5c(-c6cccc(F)c6)ccnc5[nH]4)c3n2)c1 [compound 121] | 29.3
23 | 11 | 6960 | 10 | 18.8 | CCCC(=O)Nc1cncc(-c2cc3c(-c4nc5c(-c6cccc(F)c6)nccc5[nH]4)n[nH]c3cn2)c1 [compound 122] | 67.8
24 | 37 | 218 | – | 1.4 | CC(C)CC(=O)Nc1cncc(-c2ccc3[nH]nc(-c4nc5c(-c6cccc(F)c6)ccnc5[nH]4)c3c2)c1 [compound 124] | 61
25 | 12 | 7330 | 10 | 11 | O=C(Nc1cncc(-c2cnc3[nH]nc(-c4nc5c(-c6cccc(F)c6)cncc5[nH]4)c3c2)c1)C1CC1 [compound 126] | 148
26 | 6 | 42 | – | 9 | O=C(Nc1cncc(-c2cnc3[nH]nc(-c4nc5c(-c6cccc(F)c6)cncc5[nH]4)c3c2)c1)N1CCOCC1 [compound 127] | 96.8
27 | 2 | 28 | – | 345 | O=C(CC1CCNCC1)Nc1cncc(-c2cc3c(-c4nc5c(-c6cccc(F)c6)ccnc5[nH]4)n[nH]c3cn2)c1 [compound 128] | 54.7
28 | 53 | 164 | 100 | 23 | O=C(Cc1ccccc1)Nc1cncc(-c2ccc3[nH]nc(-c4nc5c(-c6cccc(F)c6)cncc5[nH]4)c3c2)c1 [compound 129] | 124
29 | 13 | 160 | 30 | 1.2 | CC(C)Nc1cncc(-c2cnc3[nH]nc(-c4nc5c(-c6cccc(F)c6)cncc5[nH]4)c3c2)c1 [compound 131] | 504
30 | 1 | 12 | 10 | 638 | CN(C)c1cncc(-c2ccc3[nH]nc(-c4nc5c(-c6cccc(F)c6)cncc5[nH]4)c3n2)c1 [compound 132] | 154
31 | 2 | 37 | 10 | 659 | CN(C)c1cncc(-c2ccc3[nH]nc(-c4nc5c(-c6cccc(F)c6)ccnc5[nH]4)c3n2)c1 [compound 133] | 83.8
32 | 6 | 76 | – | 40.9 | CCNCc1cncc(-c2cnc3[nH]nc(-c4nc5c(-c6cccc(F)c6)cccc5[nH]4)c3c2)c1 [compound 134] | 98.7
33 | 1 | 55 | – | 253 | CN(C)CCOc1cncc(-c2cnc3[nH]nc(-c4nc5c(-c6cccc(F)c6)nccc5[nH]4)c3c2)c1 [compound 151] | –
34 | 3 | 40 | – | 268 | CC(C)CC(=O)Nc1cncc(-c2ccc3[nH]nc(-c4nc5c(N6CCN(C)CC6)cccc5[nH]4)c3c2)c1 [compound 217] | –
35 | 2 | 18 | – | 146 | Nc1cncc(-c2ccc3[nH]nc(-c4cc5c(-c6cccnc6)nccc5[nH]4)c3c2)c1 [compound 347] | –
36 | 1 | 6 | – | 14 | CN1CCC(n2cc(C(=O)Nc3cc4cc(-c5cnn(C)c5)ccc4cn3)cn2)CC1 [compound 561] | –
37 | 3 | 78 | – | 381 | O=C(Nc1cc2cc(-c3cncc(NC4CCNCC4)n3)ccc2cn1)C1CC(F)(F)C1 [compound 600] | –
38 | 7 | 53 | – | 383 | O=C(Nc1cc2cc(-c3cncc(NCC4(F)CNC4)n3)ncc2cn1)C1CC1 [compound 615] | –

Row | SMILES | EC50 (CLK2 kinase) [nM] | EC50 (CLK3 kinase) [nM] | EC50 [1] [nM] | EC50 [2] [nM] | Emax [1] [%]
39 | CC(C)Nc1cncc(-c2ccc3cnc(NC(=O)C4CCN(CCF)CC4)cc3c2)n1 [compound 598] | 8 | 52 | – | 178 | –
40 | CNc1nc(NCc2ncccn2)c2c(-c3ccc4ncccc4c3)c[nH]c2n1 [compound 624] | 10 | 26 | – | 73.3 | –
